Tested on: patient-derived NSCLC explants
Experiment: Accumulation of mitoxantrone and daunorubicin in ex vivo explants
Format: cell-based, human
Conditions: 5 µM talazoparib, 2 µM Ko143, 25 µM MK571
From the text: NSCLC specimens from lung lobectomies were donated by patients at the Department of Cardiac Surgery, University Hospital Hradec Kralove. All the patients signed the informed consent; its formulation was approved by the University Hospital Ethics Committee (study no. 202002 […]). The NSCLC malignant tissues were excised from lung lobes by the pathologist immediately after the surgery. Then, NSCLC primary explants were generated according to the established protocols. First, the tumor tissues were cut into small pieces by scalpel. Then, the cells were released from the tissue by the 0.1% collagenase in 1 × MEM at 37 °C for 30 min. Subsequently, 1% BSA in MEM (v/v) was added, and cells were filtered through a 40 μm pore-sized cell strainer. The resulting solution was centrifuged at 200 × g for 5 min and the pellet was resuspended in 1% BSA in MEM. The centrifugation (100 × g for 10 min) in Ficoll Paque Plus was used for removing biological impurities such as cell debris, etc. Next, the NSCLC cells were collected and transferred into c-based media. The additional centrifugation (200 × g for 5 min) was applied to remove the traces of Ficoll solution. […] The fluorescence in cells was measured immediately after the collection of their suspensions using flow cytometer Sony SA3800 Spectral Cell Analyzer (Sony Biotechnology, San Jose, CA, USA). […]

Cn1ncnc1[C@H]1c2n[nH]c(=O)c3cc(F)cc(c23)N[C@@H]1c1ccc(F)cc1 [talazoparib, Talazoparib]
effect on cytostatic efflux / accumulation (primary cultures with high expression of ABCG2/ABCC1): significantly inhibited cytostatic efflux | effect on cytostatic efflux / accumulation (primary cultures with low expression of ABCG2/ABCC1): insignificant accumulation changes
